Results: PubChem BioAssay AID844 (SRMLSC, 2007)
Calls of active or inactive are those of the source. No rule for the calls is given here.

System: MRP1 cells, doxorubicin viability shift, 10 uM compound
Assay: doxorubicin EC50 increase in MRP-1 cells, dose response, cell-based, doxorubicin EC50 shift (AID 844)
Conditions: for EC50: measured here: doxorubicin EC50 with compound

Cc1cccc(Cc2cnc(NC(=O)CN3C(=O)/C(=C/c4ccccc4)SC3=S)s2)c1
fold increase in Dox EC50: 1.53 | EC50: 8.25 µM

CCOC(=O)c1c(-c2ccc(C)o2)csc1NC(=O)CSc1ncn[nH]1
fold increase in Dox EC50: 0.51 (inactive) | EC50: 2.74 µM

Cc1ccc(S(=O)(=O)N2CCC(C(=O)N[C@@H](C)C(=O)NC3CCCCC3)CC2)cc1
fold increase in Dox EC50: 0.88 (inactive) | EC50: 4.73 µM

Cc1ccc(/C=C2\SC(=S)N(CCCC(=O)Nc3ccccn3)C2=O)cc1
fold increase in Dox EC50: 0.82 (inactive) | EC50: 4.44 µM

C=C1c2cc(CC)ccc2NC(=O)N1c1ccc(C)cc1
fold increase in Dox EC50: 0.44 (inactive) | EC50: 2.37 µM

COc1ccc(N2C(=O)CC(N3CCC(O)(c4cccc(C(F)(F)F)c4)CC3)C2=O)cc1 (stereo not drawn)
fold increase in Dox EC50: 0.89 (inactive) | EC50: 4.82 µM

C=CCNC(=S)NNC(=O)COc1ccc(Br)cc1
fold increase in Dox EC50: 0.71 (inactive) | EC50: 3.82 µM

COC(=O)c1ccc(COc2cc(O)c3c(c2)OC(C)(C)CC3=O)cc1
fold increase in Dox EC50: 1.03 (inactive) | EC50: 5.56 µM

Cc1cc(C)cc(-c2nc(-c3ccncc3)no2)c1
fold increase in Dox EC50: 0.77 (inactive) | EC50: 4.13 µM

COc1ccc(NC(=O)CC2C(=O)N(c3ccc(Cl)cc3)C(=S)N2NC(=O)c2cccc(F)c2)cc1 (stereo not drawn)
fold increase in Dox EC50: 0.67 (inactive) | EC50: 3.59 µM

CCN(CC)S(=O)(=O)c1ccc(NN=C(C#N)C#N)cc1
fold increase in Dox EC50: 0.68 (inactive) | EC50: 3.7 µM

COc1ccc(-c2nn(-c3ccccc3)cc2C(=O)Nc2nc(CC(C)=O)ns2)cc1
fold increase in Dox EC50: 0.99 (inactive) | EC50: 5.32 µM

COc1ccccc1NC(=O)CSC1=NCCN1
fold increase in Dox EC50: 0.68 (inactive) | EC50: 3.7 µM

O=C(Nc1ccc(O)cc1)C1CCCO1 (stereo not drawn)
fold increase in Dox EC50: 0.91 (inactive) | EC50: 4.92 µM

Cn1c(=O)[nH]c(=O)c2c1nc(SCC(=O)Nc1ccccc1)n2Cc1ccccc1
fold increase in Dox EC50: 0.45 (inactive) | EC50: 2.44 µM

Cc1cc(C)n(CCc2nc(-c3ccc(-c4ccccc4)cc3)cs2)n1
fold increase in Dox EC50: 1.82 | EC50: 9.8 µM

CC(/C=N/NC(=O)c1nn(C)c(C)c1Br)=C\c1ccccc1
fold increase in Dox EC50: 1.25 (inactive) | EC50: 6.72 µM

Fc1cccc(-c2cc3nc(-c4ccccc4)cc(N4CCC5(CC4)OCCO5)n3n2)c1
fold increase in Dox EC50: 0.56 (inactive) | EC50: 3.04 µM

O=C(CSc1nc2ccccc2o1)NCc1ccc2c(c1)OCO2
fold increase in Dox EC50: 1.15 (inactive) | EC50: 6.23 µM

Cc1cc(C)c(NC(=O)c2sc3nc4c(cc3c2N)C(=O)CC(C)(C)C4)c(C)c1
fold increase in Dox EC50: 0.7 (inactive) | EC50: 3.76 µM

CCn1c(CNC(=O)COc2ccc(C(C)C)cc2)nnc1SCC(=O)Nc1ccccc1C(C)C
fold increase in Dox EC50: 1.04 (inactive) | EC50: 5.63 µM

Cc1ccc(Cl)cc1N1CCN(C(=O)Cc2ccc(-n3c(=O)[nH]c4ccsc4c3=O)cc2)CC1
fold increase in Dox EC50: 0.78 (inactive) | EC50: 4.24 µM

CCOC(=O)N1CCN(c2nc(-c3cccc(OC)c3)cc(C(F)(F)F)n2)CC1
fold increase in Dox EC50: 1.11 (inactive) | EC50: 6.02 µM

Cc1ccc(S(=O)(=O)Nc2ccc3ncccc3c2)cc1
fold increase in Dox EC50: 1.36 (inactive) | EC50: 7.32 µM

COc1ccc(Cl)cc1C(=O)Nc1ccc2c(c1)OCO2
fold increase in Dox EC50: 0.66 (inactive) | EC50: 3.57 µM

COC(=O)/C(=C/Nc1ccc(O)cc1)[N+](=O)[O-]
fold increase in Dox EC50: 0.21 (inactive) | EC50: 1.12 µM

Cc1nn(Cc2ccc(Cl)cc2Cl)c(C)c1NC(=O)c1ccc(COc2cc(Cl)ccc2Cl)o1
fold increase in Dox EC50: 0.82 (inactive) | EC50: 4.4 µM

Cc1cccc2cc(CN(Cc3ccco3)S(=O)(=O)c3ccc4c(c3)OCCO4)c(=O)[nH]c12
fold increase in Dox EC50: 0.96 (inactive) | EC50: 5.19 µM

COc1ccc(OC)c(-c2csc(NC(=O)C3c4ccccc4Oc4ccccc43)n2)c1
fold increase in Dox EC50: 0.96 (inactive) | EC50: 5.16 µM

CC1=C(C(=O)Nc2ccccc2C)C(c2ccc(C)o2)N2C(=O)CSC2=N1 (stereo not drawn)
fold increase in Dox EC50: 1.01 (inactive) | EC50: 5.43 µM

Brc1cc2c(cc1COc1ccc(-c3nn[nH]n3)cc1)OCO2
fold increase in Dox EC50: 1.73 | EC50: 9.31 µM

COc1ccc(C(=O)Nc2ccc(Cl)c(S(=O)(=O)Nc3ccccc3OC)c2)cc1
fold increase in Dox EC50: 0.57 (inactive) | EC50: 3.05 µM

COc1ccc(-c2ocnc2C(=O)Nc2ccccc2N2CCCCC2)cc1
fold increase in Dox EC50: 0.81 (inactive) | EC50: 4.37 µM

COc1ccc(Cl)cc1N1C(=O)C2CCCN2C1c1ccc(F)c(F)c1 (stereo not drawn)
fold increase in Dox EC50: 0.85 (inactive) | EC50: 4.61 µM

COC(=O)N/N=C/c1ccc(-c2cc(Cl)cc(Cl)c2)o1
fold increase in Dox EC50: 1.06 (inactive) | EC50: 5.71 µM

CCc1nnc(NC(=O)c2ccc(S(=O)(=O)N(CC)CC)cc2)s1
fold increase in Dox EC50: 0.69 (inactive) | EC50: 3.73 µM

CC(C)CNC(=O)c1cccc(NC(=O)Cc2ccc(Br)cc2)c1
fold increase in Dox EC50: 0.92 (inactive) | EC50: 4.98 µM

COc1ccc(C2CC(c3ccc(Cl)cc3Cl)Nc3nc(N)nn32)cc1OC (stereo not drawn)
fold increase in Dox EC50: 1.05 (inactive) | EC50: 5.68 µM

NC1=NC(=O)/C(=C/c2cn(CCC(=O)O)nc2-c2ccc(Cl)cc2)S1
fold increase in Dox EC50: 0.93 (inactive) | EC50: 5.01 µM

O=C(COc1ccc(Cl)cc1)N1CCN(S(=O)(=O)c2ccccc2)CC1
fold increase in Dox EC50: 0.68 (inactive) | EC50: 3.68 µM

Cc1noc(/C=C/N(C)C)c1S(=O)(=O)N1CCCC(C(=O)NC2CCCCC2C)C1 (stereo not drawn)
fold increase in Dox EC50: 0.92 (inactive) | EC50: 4.98 µM

N#Cc1nc(COc2ccccc2)oc1N1CCCCCC1
fold increase in Dox EC50: 0.59 (inactive) | EC50: 3.17 µM

O=c1cc(CN2CCN(c3cccc(Cl)c3)CC2)c2cc3c(cc2o1)CCCC3
fold increase in Dox EC50: 0.74 (inactive) | EC50: 3.98 µM

CSc1ncc(Cl)c(C(=O)Nc2nnc(SC)s2)n1
fold increase in Dox EC50: 1.12 (inactive) | EC50: 6.07 µM

COc1cccc(-c2csc(NC(=O)Oc3ccccc3)n2)c1
fold increase in Dox EC50: 1.52 | EC50: 8.23 µM

COc1ccc(C2CC(c3ccc(Cl)cc3)n3nc(N)nc3N2)cc1 (stereo not drawn)
fold increase in Dox EC50: 0.65 (inactive) | EC50: 3.52 µM

COc1ccc([N+](=O)[O-])cc1NC(=O)COC(=O)/C=C/c1ccco1
fold increase in Dox EC50: 0.99 (inactive) | EC50: 5.32 µM

COc1ccc(C(=O)NCc2ccc(-c3nc4ccccc4s3)cc2)cc1
fold increase in Dox EC50: 1.57 | EC50: 8.47 µM

CC(C)CCC1CC(CSC(=N)N)OC1=O (stereo not drawn)
fold increase in Dox EC50: 0.68 (inactive) | EC50: 3.68 µM

O=C(Nc1ncc(Cc2ccc(C(F)(F)F)cc2)s1)c1ccc(-c2cccc([N+](=O)[O-])c2)o1
fold increase in Dox EC50: 0.71 (inactive) | EC50: 3.86 µM

O=C(CCN1C(=O)/C(=C/c2ccccc2)SC1=S)NNC(=O)c1cccnc1
fold increase in Dox EC50: 1.27 (inactive) | EC50: 6.88 µM

COc1ccc(/C=N/Nc2cc(C)nc(-n3nc(C)cc3C)n2)cc1
fold increase in Dox EC50: 0.12 (inactive) | EC50: 0.656 µM

CCOC(=O)c1c(NC(=O)CSc2ncn[nH]2)sc(C)c1C
fold increase in Dox EC50: 0.32 (inactive) | EC50: 1.74 µM

Cc1cc(C)n(-c2nc3ccccc3nc2Nc2ccc3c(c2)OCO3)n1
fold increase in Dox EC50: 0.75 (inactive) | EC50: 4.02 µM

O=C(Nc1nc(-c2ccc(Oc3ccccc3)cc2)cs1)C1=COCCO1
fold increase in Dox EC50: 0.84 (inactive) | EC50: 4.54 µM

CC(NC(=O)C12CC3CC(CC(C3)C1)C2)c1ccc2c(c1)OCCO2 (stereo not drawn)
fold increase in Dox EC50: 1.06 (inactive) | EC50: 5.7 µM

COc1ccc(C(=O)NCc2ccc3c(c2)OCO3)cc1S(=O)(=O)N(C)Cc1ccccc1
fold increase in Dox EC50: 0.75 (inactive) | EC50: 4.08 µM

CCOC(=O)C(C(=O)Nc1nc2ccccc2s1)C1CCCCC1 (stereo not drawn)
fold increase in Dox EC50: 1 (inactive) | EC50: 5.39 µM

COc1ccc(Cl)cc1NC(=O)CSc1nnc(COc2ccccc2)n1N
fold increase in Dox EC50: 0.86 (inactive) | EC50: 4.64 µM

COc1ccc(CN=C2NC(=O)CC(C(=O)Nc3ccccc3C)S2)cc1 (stereo not drawn)
fold increase in Dox EC50: 1.16 (inactive) | EC50: 6.24 µM

CNc1oc(-c2ccc(C)cc2)nc1P(=O)(c1ccccc1)c1ccccc1
fold increase in Dox EC50: 0.95 (inactive) | EC50: 5.13 µM

O=C(NC(=S)NC(=O)c1ccccc1F)c1ccccc1F
fold increase in Dox EC50: 1.44 (inactive) | EC50: 7.79 µM

CC(C)(C)c1ccc(-c2nc(-c3ccncc3)no2)cc1
fold increase in Dox EC50: 0.77 (inactive) | EC50: 4.15 µM

O=C(O)CCN1C(=O)CC(N2C(=O)/C(=C/c3ccc(Cl)cc3)SC2=S)C1=O (stereo not drawn)
fold increase in Dox EC50: 1.3 (inactive) | EC50: 7.04 µM

O=C1/C(=C\c2cccs2)N=C(c2cccs2)N1Nc1ccccc1
fold increase in Dox EC50: 0.84 (inactive) | EC50: 4.55 µM

O=C(NCc1ccccn1)c1cc(-c2ccc(-c3ccccc3)cc2)nc2ccccc12
fold increase in Dox EC50: 0.57 (inactive) | EC50: 3.1 µM

COc1ccc(OC)c(NC(=O)CSc2nnc(CNC(=O)COc3ccc(Cl)cc3)o2)c1
fold increase in Dox EC50: 1.11 (inactive) | EC50: 5.98 µM

COc1ccc(NC(=O)c2oc3ccccc3c2NC(=O)c2ccc3c(c2)OCO3)cc1
fold increase in Dox EC50: 0.44 (inactive) | EC50: 2.4 µM

Cc1ccc(C(=O)CSc2n[nH]c(-c3ccco3)n2)cc1C
fold increase in Dox EC50: 0.74 (inactive) | EC50: 3.97 µM

O=C(CSc1ncn[nH]1)Nc1nnc(-c2ccccc2)s1
fold increase in Dox EC50: 0.58 (inactive) | EC50: 3.12 µM

COc1ccc(C(=O)NCCn2cc(SCC(=O)Nc3nnc(C)s3)c3ccccc32)cc1
fold increase in Dox EC50: 0.5 (inactive) | EC50: 2.72 µM

CCc1nnc(NC(=O)[C@@H](NC(=O)c2cccc(S(=O)(=O)N(CC)CC)c2)C(C)C)s1
fold increase in Dox EC50: 0.4 (inactive) | EC50: 2.18 µM

COc1ccc(NC(=O)Cn2cc(C(=O)c3ccco3)c3ccccc32)cc1
fold increase in Dox EC50: 0.88 (inactive) | EC50: 4.74 µM

O=C(NC(=S)Nc1nc(-c2ccccc2)cs1)c1cncc(Br)c1
fold increase in Dox EC50: 0.99 (inactive) | EC50: 5.35 µM
